The text below walks through data of ChEMBL document CHEMBL4818987, “Recent advances of podophyllotoxin/epipodophyllotoxin hybrids in anticancer activity, mode of action, and structure-activity relationship: An update (2010-2020)” (Eur J Med Chem, 2020).

Each structure is given as a SMILES string.

The test system of one data set is U-251. As to the kind of experiment: Antiproliferative activity against human U251 cells. It counts as functional, cell-based.
The subject of a further data set is K562/Adr. Kind of data set: Antiproliferative activity against human K562/ADR cells. The format is functional, cell-based.
A further data set deals with LNCaP. As to the kind of experiment: Antiproliferative activity against human LNCaP cells. The format is functional, cell-based.
The subject of another data set is HFF. Kind of data set: Cytotoxicity against human HFF cells. It counts as cell-based.
Another data set relates to SK-BR-3. Kind of data set: Antiproliferative activity against human SK-BR-3 cells. It counts as functional, cell-based.
Data set [1] can be described thus: Selectivity index, ratio of IC50 for human HFF cells to IC50 for human A549 cells. The format is toxicity. The note with it: pooled result: one value given for 20 cell lines, strains, targets or settings, read-out: Ratio IC50.
Data set [2] concerns K562. Kind of data set: Antiproliferative activity against human K562 cells. The format is functional, cell-based.
Data set [3] deals with SMMC-7721. Kind of data set: Antiproliferative activity against human SMMC-7721 cells. It counts as functional, cell-based.
In another data set the test system is HCT-116. As to the kind of experiment: Antiproliferative activity against human HCT116 cells. The format is functional, cell-based.
Data set [4] concerns L02. Kind of data set: Cytotoxicity against human HL7702 cells. The format is cell-based.
Data set [5] has as its system K562. As to the kind of experiment: Cytotoxicity against human K562 cells by SRB assay. The format is functional, cell-based.
In data set [6] the test system is K562/A02. Kind of data set: Potency index, ratio of doxorubicin IC50 to test compound IC50 for human K562/A02 cells. It counts as functional.
Data set [7] has as its system K562/A02. As to the kind of experiment: Potency index, ratio of etoposide GI50 to test compound GI50 for human K562/A02 cells. It counts as functional.
Data set [8] has as its system K562/A02. Kind of data set: Cytotoxicity against human K562/A02 cells by SRB assay. The format is functional, cell-based.
The test system of data set [9] is K562. As to the kind of experiment: Potency index, ratio of etoposide IC50 to test compound IC50 for human K562 cells. The format is functional.
The test system of data set [10] is K562/A02. As to the kind of experiment: Antiproliferative activity against human K562/A02 cells by MTT assay. The format is functional, cell-based.
Data set [11] concerns HeLa. As to the kind of experiment: Potency index, ratio of etoposide IC50 to test compound IC50 for human HeLa cells. The format is functional.
Data set [12] in a line: Resistance index, ratio of IC50 for human K562/AO2 cells to IC50 for human K562 cells. It counts as functional.
In data set [13] the test system is HeLa. As to the kind of experiment: Antiproliferative activity against human HeLa cells by MTT assay. It counts as functional, cell-based.
For data set [14], the system named is K562. Kind of data set: Antiproliferative activity against human K562 cells by MTT assay. It counts as functional, cell-based.
A further data set concerns HL-60. As to the kind of experiment: Antiproliferative activity against human HL-60 cells incubated for 48 hrs by MTT assay. The format is functional, cell-based. The note with it: HL-60, 48 h.
The subject of data set [15] is SMMC-7721. Kind of data set: Antiproliferative activity against human SMMC-7721 cells incubated for 48 hrs by MTT assay. It counts as functional, cell-based. The note with it: SMMC-7721, 48 h.
Another data set deals with CCRF S-180. Kind of data set: Antitumor activity against mouse S180 cells implanted in ICR mouse assessed as reduction in tumor weight at 20 mg/kg, ip administered everyday for 7 days relative to control. It counts as functional. Also on record: scale not given: the % may be the effect or the level left. The note with it: time 7 day.
The test system of data set [16] is MCF7. Kind of data set: Antiproliferative activity against human MCF7 cells incubated for 48 hrs by MTT assay. The note with it: MCF7, 48 h. The format is functional, cell-based.
The test system of another data set is SW480. As to the kind of experiment: Antiproliferative activity against human SW480 cells incubated for 48 hrs by MTT assay. The format is functional, cell-based. The note with it: SW480, 48 h.
Data set [17] deals with A549. As to the kind of experiment: Antiproliferative activity against human A549 cells incubated for 48 hrs by MTT assay. The format is functional, cell-based. The note with it: A549, 48 h.
Data set [18] can be described thus: Cytotoxicity against PBMC (unknown origin) incubated for 24 hrs by CCK8 assay.
Data set [19] deals with MCF7. As to the kind of experiment: Cytotoxicity against human MCF7 cells incubated for 24 hrs by CCK8 assay. The format is functional, cell-based. The note with it: MCF7, 24 h.
The subject of data set [20] is L02. Kind of data set: Cytotoxicity against human L02 cells incubated for 24 hrs by CCK8 assay. It counts as functional, cell-based. The note with it: L02, 24 h.
For data set [21], the system named is A549. Kind of data set: Cytotoxicity against human A549 cells incubated for 24 hrs by CCK8 assay. The format is functional, cell-based. The note with it: A549, 24 h.
The next data set deals with HepG2. Kind of data set: Cytotoxicity against human HepG2 cells incubated for 24 hrs by CCK8 assay. The format is functional, cell-based. The note with it: HepG2, 24 h.
For data set [22], the system named is HeLa. As to the kind of experiment: Cytotoxicity against human HeLa cells incubated for 24 hrs by CCK8 assay. It counts as functional, cell-based.

Take `COC(=O)c1ccc(-c2cn(CC(=O)O[C@H]3c4cc5c(cc4[C@@H](c4cc(OC)c(OC)c(OC)c4)[C@H]4C(=O)OC[C@@H]43)OCO5)nn2)cc1`: the half-inhibitory concentration (IC50) in the data set on U-251 turned out to be 19.6 nM; in the data set with K562/Adr, 19.6 nM; in the data set with LNCaP it was 19.6 nM; with HFF it was 195 nM; with SK-BR-3 it was 19.6 nM; in the data set with K562 [2], 19.6 nM. Further, the IC50 turned out to be 19.6 nM in the data set with SMMC-7721 [3], 19.6 nM in the data set on HCT-116 and 565 nM in the data set on L02 [4]. In data set [1], the selectivity ratio came to 3.5.

In the case of `COc1ccc2[nH]cc(C(=O)C(=O)N[C@@H]3c4cc5c(cc4[C@@H](c4cc(OC)c(OC)c(OC)c4)[C@H]4C(=O)OC[C@@H]43)OCO5)c2c1`, the GI50 was determined as 1020 nM with K562 [5] and 3340 nM in the data set on K562/A02 [8]. Moreover, the “Ratio IC50” value with K562/A02 [6] and in the data set on K562/A02 [7] was 4.2 in each case.

As for `COc1cc([C@@H]2c3cc4c(cc3[C@@H](NCc3cc5ccccc5[nH]3)[C@H]3COC(=O)[C@H]23)OCO4)cc(OC)c1OC`, the “Ratio IC50” value in the data set on K562 [9] is on record as 1.7; in the data set with HeLa [11], 1.7; in data set [12], 1.97; in the data set with K562/A02 [7] it was 1.7. Further, the IC50 in the data set with K562/A02 [10] was determined as 2230 nM; with HeLa [13] it was 100 nM; in the data set with K562 [14] it was 100 nM.

Consider `COc1cc([C@@H]2c3cc4c(cc3[C@@H](OC(=O)CCCC[C@@H]3SC[C@@H]5NC(=O)N[C@@H]53)[C@H]3COC(=O)[C@H]23)OCO4)cc(OC)c1O`, for which the 50% inhibitory concentration (IC50) in the data set on HL-60, with SMMC-7721 [15], with MCF7 [16], in the data set on SW480 and in the data set with A549 [17] was 130 nM each time. In addition, the Activity in the data set on CCRF S-180 is 37.7%.

Turning to `COc1cc([C@@H]2c3cc4c(cc3[C@H](OC(=O)c3c[nH]c5ccccc35)[C@H]3COC(=O)[C@H]23)OCO4)cc(OC)c1OC`, the half-maximal inhibitory concentration (IC50) in data set [18] was determined as 75600 nM; in the data set with MCF7 [19], 1930 nM; with L02 [20], 88900 nM; in the data set on A549 [21] it was 1930 nM; in the data set with HepG2, 1930 nM; in the data set with HeLa [22] it was 1930 nM.
